Here are results for one substance from US20240374743A1, “BLETILLA STRIATA POLYSACCHARIDE IRON COMPLEX, PREPARATION METHOD THEREFOR AND USE THEREOF” (priority 2023, published 2024).

The test system of this experiment is mouse model of iron deficiency anemia. The experiment in a line: Anti-iron deficiency anemia test in mice. Type of experiment: in vivo, ICR mice. As to the method: Experimental animals: 35 ICR mice, clean grade, body weight 20-25 g, female.
Establishment of a mouse model of iron deficiency anemia: All mice were kept in a stainless steel cage, in which wood dust was used as padding to prevent iron from other sources from affecting the experimental results. The mice were adaptively fed at room temperature (24±1° C.) and humidity 50% for 3 days and then randomly divided into 7 groups, with 5 mice in each group. Five mice fed with basal feed (Fe>100 mg kg^−1) were used as a blank control group, and the remaining 30 mice were given a low-iron diet (Fe: 10 mg·kg^−1, AIN93 standard) and randomly divided into a model group (Model), a positive drug (Niferex) group, a ferrous sulfate (FeSO4) group, and low-dose, medium-dose and high-dose groups of the Bletilla striata polysaccharide-iron (III) complex prepared in Example 4. After adaptive feeding, 0.1 mL of blood was taken from the cheeks of all mice, and the routine blood test data, serum iron three-term test data, and other data were determined by using a blood cell analyzer and used as normal values before modeling. Blood was drawn from the cheek of each mouse twice a week, but the blood was not collected. The mice in each group got free access to water. After three consecutive weeks of feeding, 0.2 mL of blood was collected from the cheeks of the mice in each group and then measured for various hematological indexes, and the body weight changes were recorded and plotted. […] Mice that failed in modeling were excluded and were not included in any drug group.
Method of administration: Mice were administered by gavage at 8 am every day for 28 consecutive days. During gavage, the mice in each group got free access to water and fed normal diet. The mice in the blank control group and the model control group were given the same volume of distilled water, the mice in the positive drug group were given a drug with an Fe content of 0.039 mg/kg, the mice in FeSO4 group were given a drug with an Fe content of 0.039 mg/kg, and the mice in the low-dose, medium-dose and high-dose groups of the Bletilla striata polysaccharide-iron (III) complex were given drugs with Fe contents of 0.0195 mg/kg, 0.039 mg/kg, and 0.078 mg/kg, respectively. Except the blank control group, the other six groups were given a low-iron feed. The body weight was weighed, recorded, and plotted once a week, and the animal state was observed.
Sample collection: After the last administration by gavage, the mice in each group got free access to water for 12 hours and sacrificed, whole blood was collected from the heart to determine various biochemical indexes, including hemoglobin content (Hb) in red blood cells, red blood cell count (RBC), hematocrit (HCT), mean corpuscular volume (MCV), mean corpuscular hemoglobin content (MCH), mean corpuscular hemoglobin concentration (MCHC), red blood cell volume distribution width (RDW), serum iron (SI) content, total iron binding capacity (TIBC), and erythropoietin (EPO). Liver and spleen tissues were taken, weighed, and recorded, and the organ index was calculated. The organ coefficient was calculated according to the following equation, and a histogram was plotted for analysis: […]

The mark [1] stands for this setting: Fe 0.039 mg/kg (medium-dose group), gavage 28 days.
Where [2] appears, read: gavage 28 days, complex low-, medium- and high-dose groups, Niferex and FeSO4 Fe 0.039 mg/kg.

Under setting [1], ferrous sulfate [FeSO4] displayed an HCT of 0.29 ± 0.05, an MCH of 17.83 ± 0.63, an MCHC of 400.49 ± 16.03 and an MCV of 51.20 ± 2.07. Besides, under setting [1], the RBC value was 6.85 10^12/L and the RDW worked out at 25.56 ± 2.99. For the setting “Fe 0.039 mg/kg, gavage 28 days”, the “effect on EPO compared with model group” value was “no regulatory effect on EPO” and the “liver index compared with model group” value is reported as “not strong”. The “body weight after 28 days of administration (comparison between groups)” value (Fe 0.039 mg/kg, gavage daily 28 days) was “extremely significantly different from that in the control group”. Under setting [2], the “Hb value compared with control group” value is on record as “not significantly different from that in the control group” and the “effect on total iron binding capacity (TIBC)” value is listed as “best effect”.
